Measurements taken from paper PMC3089805 (Chemmedchem, 2010).
Converted amounts (≈) assume the structure as drawn.

How the values were obtained:
[1] = test system: H. pylori strain 26695; assay: MIC determination, liquid microdilution, H. pylori; assay type: cell-based; details: Helicobacter pylori, 26695, 27 h, read-out: MIC H. pylori
[2] = test system: C. jejuni strain H840; assay: MIC determination, liquid microdilution, C. jejuni; assay type: cell-based; details: Campylobacter jejuni, H840, 27 h, read-out: MIC C. jejuni

Structure (SMILES) | MIC [1] | MIC [2]
O=C(Nc1ncc([N+](=O)[O-])s1)c1cccc(F)c1 [Analogue 7, 3-Fluoro-N-(5-nitrothiazol-2-yl)benzamide] | 0.9 µM (≈ 0.241 µg/mL) | 11.2 µM (≈ 2.99 µg/mL)
O=C(Nc1ncc([N+](=O)[O-])s1)c1ccc(F)cc1F [Analogue 9, 2,4-Difluoro-N-(5-nitrothiazol-2-yl)benzamide] | 0.4 µM (≈ 0.114 µg/mL) | 7 µM (≈ 2 µg/mL)
O=C(Nc1ncc([N+](=O)[O-])s1)c1ccc(F)c(F)c1 [Analogue 10, 3,4-Difluoro-N-(5-nitrothiazol-2-yl)benzamide] | 1.8 µM (≈ 0.513 µg/mL) | 5.3 µM (≈ 1.51 µg/mL)
O=C(Nc1ncc([N+](=O)[O-])s1)c1c(F)cccc1F [Analogue 11, 2,6-Difluoro-N-(5-nitrothiazol-2-yl)benzamide] | 0.7 µM (≈ 0.2 µg/mL) | 14 µM (≈ 3.99 µg/mL)
O=C(Nc1ncc([N+](=O)[O-])s1)c1c(F)cc(F)cc1F [Analogue 12, 2,4,6-Trifluoro-N-(5-nitrothiazol-2-yl)benzamide] | 4.9 µM (≈ 1.49 µg/mL) | 9.9 µM (≈ 3 µg/mL)
O=C(Nc1ncc([N+](=O)[O-])s1)c1cc(F)c(F)c(F)c1 [Analogue 13, 3,4,5-Trifluoro-N-(5-nitrothiazol-2-yl)benzamide] | 1.2 µM (≈ 0.364 µg/mL) | 4.9 µM (≈ 1.49 µg/mL)
O=C(Nc1ncc([N+](=O)[O-])s1)c1cc(F)c(F)cc1F [Analogue 14, 2,4,5-Trifluoro-N-(5-nitrothiazol-2-yl)benzamide] | 0.8 µM (≈ 0.243 µg/mL) | 9.9 µM (≈ 3 µg/mL)
O=C(Nc1ncc([N+](=O)[O-])s1)c1cc(F)c(F)c(F)c1F [Analogue 15, 2,3,4,5-Tetrafluoro-N-(5-nitrothiazol-2-yl)benzamide] | 1.2 µM (≈ 0.385 µg/mL) | 4.7 µM (≈ 1.51 µg/mL)
O=C(Nc1ncc([N+](=O)[O-])s1)c1c(F)c(F)c(F)c(F)c1F [Analogue 16, 2,3,4,5,6-Pentafluoro-N-(5-nitrothiazol-2-yl)benzamide] | 7.4 µM (≈ 2.51 µg/mL) | –
N#Cc1cccc(C(=O)Nc2ncc([N+](=O)[O-])s2)c1 [Analogue 20, 3-Cyano-N-(5-nitrothiazol-2-yl)benzamide] | 4.1 µM (≈ 1.12 µg/mL) | 36.5 µM (≈ 10 µg/mL)
N#Cc1ccc(C(=O)Nc2ncc([N+](=O)[O-])s2)cc1 [Analogue 21, 4-Cyano-N-(5-nitrothiazol-2-yl)benzamide] | 9.1 µM (≈ 2.5 µg/mL) | 43.8 µM (≈ 12 µg/mL)
O=C(Nc1ncc([N+](=O)[O-])s1)c1ccccc1C(F)(F)F [Analogue 22, N-(5-Nitrothiazol-2-yl)-2-(trifluoromethyl)benzamide] | 1.6 µM (≈ 0.508 µg/mL) | 18.9 µM (≈ 6 µg/mL)
O=C(Nc1ncc([N+](=O)[O-])s1)c1ccc([N+](=O)[O-])cc1 [Analogue 27, 4-Nitro-N-(5-nitrothiazol-2-yl)benzamide] | 1.3 µM (≈ 0.383 µg/mL) | 13.6 µM (≈ 4 µg/mL)
COc1ccccc1C(=O)Nc1ncc([N+](=O)[O-])s1 [Analogue 28, 2-Methoxy-N-(5-nitrothiazol-2-yl)benzamide] | 1.8 µM (≈ 0.503 µg/mL) | 17.9 µM (≈ 5 µg/mL)
COc1cccc(C(=O)Nc2ncc([N+](=O)[O-])s2)c1 [Analogue 29, 3-Methoxy-N-(5-nitrothiazol-2-yl)benzamide] | 1.3 µM (≈ 0.363 µg/mL) | 7.2 µM (≈ 2.01 µg/mL)
COc1cc(C(F)(F)F)ccc1C(=O)Nc1ncc([N+](=O)[O-])s1 [Analogue 32, 2-Methoxy-N-(5-nitrothiazol-2-yl)-4-(trifluoromethyl)benzamide] | 0.9 µM (≈ 0.313 µg/mL) | –
COc1cc([N+](=O)[O-])ccc1C(=O)Nc1ncc([N+](=O)[O-])s1 [Analogue 33, 2-Methoxy-4-nitro-N-(5-nitrothiazol-2-yl)benzamide] | 0.6 µM (≈ 0.195 µg/mL) | 9.3 µM (≈ 3.02 µg/mL)
O=C(Nc1ncc([N+](=O)[O-])s1)c1cccc([N+](=O)[O-])c1O [Analogue 34, 2-Hydroxy-3-nitro-N-(5-nitrothiazol-2-yl)benzamide] | 19.3 µM (≈ 5.99 µg/mL) | 103 µM (≈ 32 µg/mL)
O=C(Nc1ncc([N+](=O)[O-])s1)c1ccc(F)cc1C(F)(F)F [Analogue 35, 4-Fluoro-N-(5-nitrothiazol-2-yl)-2-(trifluoromethyl)benzamide] | 3.4 µM (≈ 1.14 µg/mL) | 23.9 µM (≈ 8.01 µg/mL)
O=C(Nc1ncc([N+](=O)[O-])s1)c1ccc(C(F)(F)F)cc1[N+](=O)[O-] [Analogue 36, 2-Nitro-N-(5-nitrothiazol-2-yl)-4-(trifluoromethyl)benzamide] | 8.3 µM (≈ 3.01 µg/mL) | 88.3 µM (≈ 32 µg/mL)
O=C(Nc1ncc([N+](=O)[O-])s1)c1ccc(F)c([N+](=O)[O-])c1 [Analogue 37, 4-Fluoro-3-nitro-N-(5-nitrothiazol-2-yl)benzamide] | 1.6 µM (≈ 0.5 µg/mL) | 51.2 µM (≈ 16 µg/mL)
O=C(Nc1ncc([N+](=O)[O-])s1)c1cc(C(F)(F)F)ccc1Cl [Analogue 39, 2-Chloro-N-(5-nitrothiazol-2-yl)-5-(trifluoromethyl)benzamide] | 1.1 µM (≈ 0.387 µg/mL) | 17.1 µM (≈ 6.01 µg/mL)
O=C(Cc1ccccc1)Nc1ncc([N+](=O)[O-])s1 [Analogue 43, N-(5-Nitrothiazol-2-yl)-2-phenylacetamide] | 0.7 µM (≈ 0.184 µg/mL) | 11.4 µM (≈ 3 µg/mL)
